The term viability denotes a per cent measure of how many cells are alive, often set against a control. Low readings indicate a greater loss of cells, high ones better survival.

Test system in the first data set: not listed separately
As to the kind of experiment: MTT cell viability assay, protection from adriamycin-induced apoptosis. The following applies: dog, MDCK cells. (In general: Tetrazolium dyes change colour on reduction, which living cells bring about.)
Method: Using the MTT cell viability assay the ability of compounds of the invention to protect cells from adriamycin-induced apoptosis is tested.
The compound `COc1cccc2c1C(=O)c1c(O)c3c(c(O)c1C2=O)C[C@@](O)(C(=O)CO)C[C@@H]3O[C@H]1C[C@H](N)[C@H](O)[C@H](C)O1` [Adriamycin, adriamycin] registered a viability of 56%.

The subject of another data set is MDCK cells.
Assay: not given
Details: not given
With “HGF: Scatter factor / hepatocyte growth factor, pleiotropic growth factor used as positive control”, the “cell viability after pretreatment, then adriamycin” value is 94%.

For the next data set, the system named is Endothelial cells (HUVECs). In words: Assessment of HGF/SF-like activity: HUVEC proliferation (3H thymidine incorporation / Cell titer Glo). It counts as cell-based, human. The following applies: test compounds 10 μM (or 0.01 to 25 micromolar), 24 hr; growth compared to 50 ng/mL HGF control. How it is done:
1. Assessment of HGF/SF-like activity: The following assay is performed to assess the HGF/SF-like activity of the compounds of the invention. Endothelial cells (HUVECs) are seeded in 48 well plates at a density of 10,000 to 20,000 cells per well in the normal growth medium (EGM-2-Clonetics) containing 2% fetal bovine serum, FGF, VEGF, IGF, ascorbic acid, EGF, GA, heparin and hydrocortisone. The cells are grown normally in the growth medium for 24 hr at 37° C. and 5% CO2. The cells are then rinsed with RPMI-1% BSA and are starved for 1-2 hrs. The stock solutions of the compounds of the invention are made at a concentration of 10 mg/ml in DMSO and are diluted in RPMI-1% BSA at a final concentrations of 0.01 micromolar to 25 micromolar. The cells are then washed and are treated with the compounds and are incubated for another 24 hr at 37° C. Then ^3H thymidine (0.5 microgram/ml in RPMI-BSA) is added to the cells and they are incubated at 37° C. for 4 to 5 hours. The unincorporated thymidine is removed by washing the cells four times with 1×PBS. Then the cells are lysed with 0.5M NaOH for 30 min and the radioactivity is counted in the beta counter. A similar proliferation assay using monkey bronchial epithelial cells (4 MBR-5) is also employed.
In another assay format, HUVEC cells were grown in EGM-2 medium (Lonza) with 5% FBS to 80% confluence at 37° C. and in 5% CO2. Cells were plated in a white opaque flat bottom 96 well plate at a density of 10000 cells per well and in a volume of 100 μL, and incubated overnight and starved by washing twice in serum-free EGM-2 media. After 2 hours, cells were treated with 100 μL EGM-2 medium containing 10 μM test compounds and incubated for an additional 24 hours at 37° C. (All compounds were in DMSO and the final concentration of DMSO in the assay was 0.1%). In all experiments, serum (5%) and HGF (50 ng/mL final) were run as positive controls and DMSO vehicle was run as a negative control. 10 μL Cell titer Glo reagent (Promega) was added to each well and plates were mixed by gentle tapping. After 10 minutes at room temperature, plates were read on a Packard Top Count Luminescence plate reader. Proliferation was expressed as a percentage of growth compared to 50 ng/mL HGF control, with the DMSO control representing 0% growth and the HGF control representing 100% growth.
As for `C(=Cc1cccs1)c1ccc[nH]1` [2-(2-(thiophen-2-yl)vinyl)-1H-pyrrole], the “HGF/SF-like activity (HUVEC proliferation)” value (from here on “HGF/SF-like activity”) is on record as “active”.
Still for that read-out and setting: then `c1cc(-c2ccc3cn[nH]c3c2)cs1` [6-(thiophen-3-yl)-1H-indazole], with “active”.
On the same count and under the same terms, then `c1csc(-c2ccc3cn[nH]c3c2)c1` [6-(thiophen-2-yl)-1H-indazole], with “active”.
Still for that read-out and setting: the value for `c1coc(-c2ccc3cn[nH]c3c2)c1` [6-(furan-2-yl)-1H-indazole] was “active”; that for `Nc1ccc(C=Cc2nc3cc(N)ccc3[nH]2)cc1` [2-(4-aminostyryl)-1H-benzo[d]imidazol-5-amine] was “active”.
With `c1ccc2cc(-c3ncc[nH]3)ccc2c1` [2-(naphthalen-2-yl)-1H-imidazole], the “HGF/SF-like activity” value is “active”.
On to `c1ccc2cc(-c3nnn[nH]3)ccc2c1` [5-(naphthalen-2-yl)-1H-tetrazole], for which the “HGF/SF-like activity” value is “active”.
Still for that read-out and setting: then `CSc1nnc(C=Cc2cccs2)[nH]1` [3-(methylthio)-5-(2-(thiophen-2-yl)vinyl)-4H-1,2,4-triazole], with “active”.
As to `c1cc(-c2ccc3cn[nH]c3c2)co1` [6-(furan-3-yl)-1H-indazole], the “HGF/SF-like activity” value is “active”.
For the compound `C(=Cc1ncc[nH]1)c1ccccc1` [2-styryl-1H-imidazole], the “HGF/SF-like activity” value is given as “active”.
On the same count and under the same terms, then `CC(C)N1CC(c2nc(-c3ccc4ccccc4c3)c[nH]2)CC1=O` (centres unmarked) [1-isopropyl-4-(4-(naphthalen-2-yl)-1H-imidazol-2-yl)pyrrolidin-2-one], with “active”; and `C(=Cc1nnn[nH]1)c1ccccc1` [5-styryl-1H-tetrazole], with “active”; and `c1ccc2cc(-c3cnc[nH]3)ccc2c1` [5-(naphthalen-2-yl)-1H-imidazole], with “active”.
`CS(=O)(=O)Nc1ccc(-c2ccc3nc[nH]c3c2)cc1` [N-(4-(1H-benzo[d]imidazol-6-yl)phenyl)methanesulfonamide]: the “HGF/SF-like activity” value is recorded as “active”.
As to `C(=Cc1cnc[nH]1)c1ccccc1` [5-styryl-1H-imidazole], the “HGF/SF-like activity” value is reported as “active”.
On to `CCn1c(C)nc2cc(-c3ccccc3)ccc21` [1-ethyl-2-methyl-5-phenyl-1H-benzo[d]imidazole], for which the “HGF/SF-like activity” value is on record as “active”.
On the same count and under the same terms, the value for `Nc1nnc(C=Cc2ccccc2)[nH]1` [5-styryl-4H-1,2,4-triazol-3-amine] was “active”.

The next data set deals with LX2 cells (collagen I mRNA). As to the kind of experiment: Antifibrotic activity: collagen I mRNA by real time PCR in LX2 hepatic stellate cells. The format is cell-based, human. The following applies: serum starved LX2 cells, 24 hours, HGF 100 ng/ml. How it is done:
2. Antifibrotic Activity of HGF and compounds of the invention in vitro and in vivo. The antifibrotic effects of HGF and compounds of the invention in the immortalized human hepatic stellate cell line LX2 are determined. Serum starved LX2 cells are treated for 24 hours with HGF at 100 ng/ml and compounds of the invention at doses ranging from 12 to 24 ug/ml. RNA is then isolated and real time PCR is performed to evaluate changes in collagen I mRNA. Results typically indicate a 90% and 70% decrease in collagen I mRNA expression in cells treated with instant compounds and HGF, respectively. Additional experiments to determine the effects of HGF and compounds on TGFb-1, bPDGF-R and MMP-1 mRNA are also performed to more completely characterize activities of these compounds which can contribute to their antifibrotic effects.
For orientation: Quantitative PCR measures a nucleic acid by following its amplification.
Consider “HGF: Scatter factor / hepatocyte growth factor, pleiotropic growth factor used as positive control”, for which the “decrease in collagen I mRNA expression” value turned out to be 70%.

(Values after patent US20110237633A1, “SMALL MOLECULE MODULATORS OF HEPATOCYTE GROWTH FACTOR (SCATTER FACTOR) ACTIVITY” (priority 2008, published 2011).)
